Data as given in patent US12622898B2, “Methods and compositions for improving bone marrow hematopoietic functions” (SUN YAT-SEN UNIVERSITY, priority 2019, dated 2026).
“Also recorded” adds a separate entry of the source.

What was measured:
[1] = tested on: HSPCs (LT-HSC, ST-HSC, MPP and CD150HSC) in the bone marrow; assay: ABC294640 treatment of C57BL/6J mice during homeostasis: HSPC numbers and cell cycle; type: in vivo, mouse; details: for HSC pool / HSC quiescence (cell cycle analysis of CD150 HSCs): vs vehicle
Text: (§1) B6N.129S6-Sphk1tm1Rlp/J (Sphk1Δ/Δ) and B6N.129S6-Sphk2tm1Rlp/J (Sphk2Δ/Δ) mice were obtained from the Jackson Laboratory. To achieve tissue-specific deletion of Sphk2, the Sphk2^flox/flox mice were crossed with Vav-Cre transgenic mice. Sphk2^flox/flox mice was constructed by Cyagen Biosciences Inc. Briefly, linearized targeting vector was electroporated into embryonic stem (ES) cells and positive clones were identified by Southern blotting and injected into C57BL/6 blastocysts followed by chimera production to obtain germline transmission. The Frt-flanked Neo cassette was subsequently removed by mating with Flpe mice. 2-month-old mice or more than 20-month old for aging we used as indicated. 5 FU (Sigma-Aldrich) was injected once or once a week for survival curve as indicated in the tail vein at 150 μg/g body weight. Sphk2 inhibitor ABC294640 (Target Molecule Corp T6750) and PDK inhibitor Sodium dichloroacetate (DCA) (Selleck Chemicals S8615) were intraperitoneal injected at 25 mg/kg. […] Animals were randomly included in the experiments according to genotyping results as a mix of male and female. All animal experiments were performed according to protocols approved by the institutional animal care and use committee.
(§2) For phenotype analysis and hematopoietic purification, hematopoietic cells were harvested from bone marrow (femur and tibia). For cell surface phenotyping, a lineage cocktail (Lin, phycoerythrin (PE)-Cy5) was used, including anti-CD3 (145-2C11), anti-CD4 (RM4-5), anti-CD8 (53-6.7), anti-Mac-1 (M1/70), anti-Gr1 (RB6-8C5), anti-B220 (RA3-6B2), anti-IgM (11/41) and anti-TER119 (TER-119) (100 ng antibody cocktail per million bone marrow cells, Biolegend). Monoclonal antibodies to SCA1 (D7, Biolegend), c-KIT (2B8, Biolegend), FLK2 (A2F10, Biolegend), CD34 (RAM34, eBioscience), CD48 (HM48-1, Biolegend), CD41 (MWReg30, eBioscience), CD150 (TC15-12F12.2, BioLegend), CD16/32 (93, Biolegend), IL-7R (A7R34, Biolegend) (all used as 50 ng per million bone marrow cells) were also used where indicated.
(§3) For cell cycle, DNA damage, the cells were fixed, permeabilized and stained by anti-Ki67 (16A8, Biolegend).
(§4) Cell sorting and analysis were performed using an Attune NxT analyzer (Thermo Fisher Scientific) or InFlux Cell Sorter (BD Biosciences). Data analysis was performed using FlowJo software.

[2] = tested on: HSPCs (LT-HSC, ST-HSC, MPP, CD150HSC); assay: ABC294640 treatment after 5 FU chemotherapeutic stress: HSPC numbers and ROS; type: in vivo, mouse; details: vs vehicle
Text: as §1, §2
(§5) The cells were further incubated with 0.1 ug/uL DAPI (1306, Thermo Scientific) for 30 min at room temperature. For apoptosis and ROS analysis, the cells were stained by AnnexinV or DCFDA (D6883, Sigma-Aldrich).
as §4

[3] = tested on: functional HSCs (engrafted donor cells in PB); assay: Competitive repopulation (serial transplantation) of bone marrow cells from mice after 5 FU and ABC294640 treatment; type: in vivo, mouse; details: for increase of reconstitution (engrafted donor cells): at 16 weeks, vs vehicle treated bone marrow cells
Description: For lineage analysis of peripheral blood, monoclonal antibodies to CD45.1 (A20, eBioscience), CD45.2 (104, Biolegend), CD3, B220, Mac-1 and Gr1 were used. 2.0×10^5 CD45.2 bone marrow cells and 2.0×10^5 CD45.1 rescue bone marrow cells were transplanted into lethally irradiated CD45.1 recipients. Adult recipient mice (CD45.1) were irradiated with an Orthovoltage X-ray source delivering approximately in two equal doses of 4.5 Gy at least 3 hours apart. For secondary or tertiary transplantation, bone marrow cells from each recipient were injected into one or two irradiated new recipient mouse (1×10^6 per recipient, depending on the number of recipients) during each round of transplantation. Every 4 weeks after transplantation, peripheral blood was collected from the submandibular vein. Hematopoietic repopulation was measured from donor-derived blood cells (CD45.2) or human-derived blood cells (human CD45).

[4] = Survival of C57BL/6J mice after serial 5 FU challenges with ABC294640 treatment; type: in vivo, mouse; details: serial 5 FU every 7 days, ABC294640 every other day; vs control
Text: B6N.129S6-Sphk1tm1Rlp/J (Sphk1Δ/Δ) and B6N.129S6-Sphk2tm1Rlp/J (Sphk2Δ/Δ) mice were obtained from the Jackson Laboratory. To achieve tissue-specific deletion of Sphk2, the Sphk2^flox/flox mice were crossed with Vav-Cre transgenic mice. Sphk2^flox/flox mice was constructed by Cyagen Biosciences Inc. Briefly, linearized targeting vector was electroporated into embryonic stem (ES) cells and positive clones were identified by Southern blotting and injected into C57BL/6 blastocysts followed by chimera production to obtain germline transmission. The Frt-flanked Neo cassette was subsequently removed by mating with Flpe mice. 2-month-old mice or more than 20-month old for aging we used as indicated. 5 FU (Sigma-Aldrich) was injected once or once a week for survival curve as indicated in the tail vein at 150 μg/g body weight. Sphk2 inhibitor ABC294640 (Target Molecule Corp T6750) and PDK inhibitor Sodium dichloroacetate (DCA) (Selleck Chemicals S8615) were intraperitoneal injected at 25 mg/kg. […]
Data are expressed as means±s.d. For all experiments except determination of survival, data were analyzed by Student's t test, and differences were considered statistically significant if P<0.05. The survival of the two groups were analyzed using a log-rank test, and differences were considered statistically significant if P<0.05. […]

[5] = tested on: aged HSPCs; assay: ABC294640 treatment of aged mice to attenuate HSC aging; type: in vivo, mouse
Text: as §1, §2
For lineage analysis of peripheral blood, monoclonal antibodies to CD45.1 (A20, eBioscience), CD45.2 (104, Biolegend), CD3, B220, Mac-1 and Gr1 were used.
as §3, §5
Bone marrow cells were diluted to the indicated concentration in PBS and were seeded into methylcellulose medium M3434 (StemCell Technologies) for CFU-GM, CFU-GEMM, and BFU-E colony formation assays according to the manufacturer's

[6] = tested on: donor derived HSPCs, white blood cells and platelets; assay: ABC294640 treatment of recipients after bone marrow transplantation: hematopoietic reconstitution; type: in vivo, mouse; details: vs vehicle
Text: as §1
2.0×10^5 CD45.2 bone marrow cells and 2.0×10^5 CD45.1 rescue bone marrow cells were transplanted into lethally irradiated CD45.1 recipients. Adult recipient mice (CD45.1) were irradiated with an Orthovoltage X-ray source delivering approximately in two equal doses of 4.5 Gy at least 3 hours apart. For secondary or tertiary transplantation, bone marrow cells from each recipient were injected into one or two irradiated new recipient mouse (1×10^6 per recipient, depending on the number of recipients) during each round of transplantation.
1×10^6 bone marrow cells were transplanted into lethally irradiated recipients, and the recipients were subjected to ABC294640 treatment or vehicle control (FIG. 67).

[7] = tested on: Pdk3 expression in HSPCs; assay: Pdk3 mRNA levels and immunoblotting in HSCs treated with inhibitors; type: cell-based, mouse
Description: The same number of cells from each population to be analyzed were sorted into PBS with 2% FBS. The cells then were washed with PBS and Lysised by RIPA. Equal amounts of protein extracts were fractionated by 12.5% SDS-PAGE and transferred to a PVDF membrane (IPVH00010, Merck Millipore). After blocked with 5% non-fat milk in Tris-buffered saline with Tween-20 (TBST, pH 7.6) for 1 h at room temperature, the membranes were incubated with primary antibodies anti-phospho-PDHE1-A type I (Ser293) (rabbit, 1:1000, ABS204, Merck Millipore), anti-Sphk2 (rabbit, 1:1000, 17096, Proteintech), anti-PDK3 (rabbit, 1:1000, 4970s, Proteintech), or anti-βactin (rabbit, 1:1000, 2118, Cell Signaling Technology), or with primary antibodies anti-PDK3 (rabbit, 1:1000, 12215, Proteintech), anti-β-actin (rabbit, 1:1000, 4970s, Cell Signaling Technology), overnight at 4° C. and then incubated with secondary antibodies (rabbit, 1:10,000, W401B, Promega) for 1 h at room temperature, which was detected by exposure to x-ray film, or by digital imaging with a charge-coupled device camera system (Odyssey Fc). The images shown are representative of images from at least three experiments.

[8] = tested on: human cord blood HSCs (CB-HSCs, CD34+CD38-CD45RA-CD49f+); assay: Ex vivo culture of human cord blood cells with ABC294640; type: cell-based; details: 2-week culture, ABC294640 1 μM; vs vehicle
Description: For phenotype analysis of human cord blood HSCs (CB-HSCs, CD34^+CD38-CD45RA-CD49f^+), cell surface phenotyping, anti-hCD34 (581), anti-hCD38 (HIT2), anti-hCD45RA (HI100) and anti-hCD49f (GOH3) (100 ng antibody cocktail per million cord blood cells, Biolegend) were used. Human cord blood cells (2×10^5) were cultured in 96-round-well plate with Stem Span media (9650, Stem Cell Technologies) supplemented with SCF (10 ng per ml), TPO (20 ng per ml) for two weeks. The culture media was supplemented with vehicle or ABC294640 (1 μM, Target Molecule Corp […]). After culture for two weeks, the culture product was transplanted into irradiated (2Gy) 6-12 weeks old NSG mice via the tail. No mice were excluded unless they died during the 16-week-observations. All animal experiments were performed according to protocols approved by the institutional animal care and use committee.

[9] = tested on: human HSCs (reconstitution in NSG mice); assay: Transplantation of ABC294640 treated human cord blood HSCs into NSG mice; type: in vivo, mouse
Description: Or, in example 14, for lineage analysis of peripheral blood, monoclonal antibodies to anti-hCD45 (HI-30, eBioscience), anti-mCD45 (30-F11, Biolegend), anti-hCD33 (human myeloid cells) (WM53, eBioscience), anti-hCD19 (human B cells) (HIB19, eBioscience), anti-hCD3 (human T cells) (UCHT1, eBioscience) were used. Every 4 weeks after transplantation, peripheral blood was collected from the submandibular vein. Hematopoietic repopulation was measured from donor-derived blood cells (CD45.2) or human-derived blood cells (human CD45). Human cord blood cells (2×10^5) were cultured in 96-round-well plate with Stem Span media (9650, Stem Cell Technologies) supplemented with SCF (10 ng per ml), TPO (20 ng per ml) for two weeks. The culture media was supplemented with vehicle or ABC294640 (1 μM, Target Molecule Corp […]). After culture for two weeks, the culture product was transplanted into irradiated (2Gy) 6-12 weeks old NSG mice via the tail. No mice were excluded unless they died during the 16-week-observations. All animal experiments were performed according to protocols approved by the institutional animal care and use committee.

[10] = tested on: white blood cells and platelets; assay: Recovery of blood cells after 5-fluorouracil or radiation-induced injury; type: in vivo, mouse
[11] = tested on: HSPCs from Sphk2 deficient mice; assay: DCA treatment of Sphk2 deficient and control mice; type: in vivo, mouse; details: Sphk2 deficient mice treated for 14 days, vs vehicle treated littermates
Text: as §1
as §2, with “indicated. […]” for “indicated.”

[12] = ABC294640 25 mg/kg intraperitoneal vs vehicle, bone marrow
[13] = donor-derived lineage cells at 16 weeks after transplantation
[14] = 18-month old mice, treatment for 10 weeks, vs vehicle
[15] = one month after transplantation
[16] = 16 weeks after transplantation in NSG mice
[17] = after stimulation of the chemotherapeutic drug 5-fluorouracil
[18] = after the stimulation of radiation

## O=C(NCc1ccncc1)C12CC3CC(C1)CC(c1ccc(Cl)cc1)(C3)C2 [ABC294640, 3-(4-chloro-phenyl)-adamantane-1-carboxylic acid (pyridin-4-ylmethyl)-amide]
[1]; [12]
  increase of CD150 HSC number: 1.7 fold
  increase of LT-HSC number: 2.1 fold
[1]
  HSC pool: expanded HSPC pool
  HSC quiescence (cell cycle analysis of CD150 HSCs): increased quiescence
[1]; listed as ABC294460
  HSC pool: expands HSC pool
  HSC quiescence (cell cycle analysis of CD150 HSCs): promotes HSC quiescence
[2]; day 14 after 5 FU treatment
  ROS level in CD150 HSCs: markedly reduced
[2]; day 14 post 5 FU
  increase of CD150 HSC number: 2.2 fold
  increase of LT-HSC number: 2.2 fold
  increase of ST-HSC number: 1.6 fold
[3]; [13]
  lymphopoiesis in recipients: markedly promoted lymphopoiesis
  myeloid skewing in recipients: suppressed myeloid skewing
[3]; primary transplantation
  increase of reconstitution (engrafted donor cells): 1.7 fold
[3]; secondary transplantation
  increase of reconstitution (engrafted donor cells): 1.5 fold
[3]; tertiary transplantation
  increase of reconstitution (engrafted donor cells): 1.9 fold
[4]
  survival: significantly prolonged; also recorded: notably increased survival
[5]; [14]
  CD150 HSC quiescence: preserved
  HSPC pool: significantly expanded
  increase of CD41- HSC population: 2.2 fold
  increase of CD150low HSC population: 3.6 fold
  reduction of DNA damage in CD150 HSPCs: 43.7%
  reduction of ROS level in CD150 HSPCs: 63%
[5]; aged mice, vs vehicle
  lymphopoiesis in peripheral blood: markedly increased lymphopoiesis
  myeloid skewing in peripheral blood: suppressed myeloid skewing
[5]; aged mice, vs vehicle treated controls
  colony-forming progenitor frequency in bone marrow cells: significantly higher
[6]; 28 days after transplantation
  increase of platelets in PB: 2.6 fold
  increase of white blood cells in PB: 1.9 fold
[6]; [15]
  increase of donor derived CD150 HSC: 2.2 fold
  increase of donor derived LT-HSC: 2.2 fold
  increase of donor derived ST-HSC: 1.6 fold
[7]
  Pdk3 expression in HSPCs: could upregulate Pdk3 expression
[8]
  increase of human HSC numbers: 1.4 fold
[9]; [16]
  lymphopoiesis (both B and T cells in recipients): improved lymphopoiesis
  multilineage potential: with multilineage potential
  myeloid skewing: reduction in myeloid skewing
[9]; 16 weeks post transplantation in NSG mice, vs vehicle cultured cells
  increase of reconstitution (human-derived blood cells): 1.76 fold
[10]; [17]
  recovery of platelets: significantly accelerated
  recovery of white blood cells: significantly accelerated
[10]; [18]
  recovery of platelets: significantly accelerated
  recovery of white blood cells: significantly accelerated

## O=C([O-])C(Cl)Cl.[Na+] [DCA, Sodium dichloroacetate]
[11]; 25 mg/kg intraperitoneal
  HSPC numbers: reduced HSPC numbers
[11]
  HSC quiescence: compromised HSC quiescence
  ROS levels in HSPCs: increased ROS levels
